Assay results from paper PMC6150407, “Synthesis and In Vitro Antiproliferative Activity of 11-Substituted Neocryptolepines with a Branched ω-Aminoalkylamino Chain” (Molecules : A Journal of Synthetic Chemistry and Natural …, 2017).
Counter-ions that a name gives are not always drawn.

How the values were obtained:
[1] = system: human breast cancer MDA-MB-453 cell line; design: method as in doi:10.1007/s00044-016-1508-z; details: MDA-MB-453 breast cancer cell line; cited from earlier work
[2] = system: human (HL-60) leukaemia cell line; design: method as in PMID 11099695; details: cited from earlier work
[3] = system: human leukemia MV4-11 cell line; assay: Antiproliferative assay (MTT, 72 h) against human leukemia MV4-11 cell line; format: cell-based; details: MV4-11 cells, 72 h exposure, 50% growth inhibition, mean ± SD
Procedure: (§1) Anti-proliferative assays in vitro were performed in the same manner as described in the literature. The cell lines of human leukemia MV4-11, lung A549, and colon HCT 116 cancer were chosen as representing various tissue origins and BALB/3T3 normal murine fibroblasts to assess the cytotoxicity of tested compounds towards normal cells. The IC50 parameter (half-maximum inhibitory concentration) was calculated based on sulforhodamine B (HCT-116, A549, BALB/3T3) or MTT (MV4-11) assay results after 72 h of exposure. Each compound in a given concentration was tested in triplicate in each experiment, which was repeated three to five times.

[4] = system: Human lung cancer cell line (A-549); assay: Antiproliferative assay (sulforhodamine B, 72 h) against A549; format: cell-based; details: A549 cells, mean ± SD
Procedure: as §1

[5] = system: human colon adenocarcinoma cell line (HCT 116); assay: Antiproliferative assay (sulforhodamine B, 72 h) against HCT 116; format: cell-based; details: HCT 116 cells, mean ± SD
Procedure: as §1

[6] = system: normal murine embryonic fibroblast cell line (BALB/3T3); assay: Antiproliferative assay (sulforhodamine B, 72 h) against normal murine fibroblasts BALB/3T3; format: cell-based, mouse; details: BALB/3T3 normal murine fibroblasts, mean ± SD
Procedure: as §1

[7] = system: salmon sperm DNA; assay: DNA binding study by UV-Vis absorption spectroscopy
Procedure: The DNA binding studies of compound 2d were performed using UV-Vis absorption spectroscopy with salmon sperm DNA in a phosphate buffer of pH 7.0 at 20 °C. […] The maximum absorption shifted from 256 nm to 289 nm. This illustrated that the mode of 2d binding to DNA was intercalation. The binding constant of 2d to DNA was calculated as 4.12 × 10^5 L·mol^−1, according to a double-reciprocal equation.
Figure 3 (a) UV-Vis absorption spectra of compound 2d at 20 °C. C(2d) = 50 μmol/L, C(DNA) = 0.0, 0.025, 0.05, 0.075, 0.1, 0.125, 0.15, 0.175, 0.2, 0.225, 0.25 μmol/L for curves 1–11 in phosphate buffer solution (pH 7.0) (b) Plot of 1/ΔA vs. 1/[DNA] for 2d-DNA.
The commercially obtained reagents (TCI, Tokyo, Japan) were used directly without further purification. The ^1H-NMR and ^13C-NMR spectra were taken on Varian INOVA-600, Varian INOVA-400, Varian INOVA-300 (Palo Alto, CA, USA), or Bruker 400 spectrometers (Billerica, MA, USA), using CDCl3 or DMSO-d6 as a solvent and tetramethylsilane (TMS) as the internal standard. The NMR spectra of the compounds are in Supplementary Materials. […] The melting points were determined on a RFS-10 hot stage microscope (J-Science, Kyoto, Japan). The UV spectra were recorded with a U-2910 spectrophotometer (Hitachi, Tokyo, Japan) in a 1 cm path length quartz cuvette at an indicated wavelength, and the sample was dissolved in phosphate buffer with 2.5% DMSO.

Row | Compound | IC50 ([3]; Homo sapiens) [µM] | IC50 ([4]; Homo sapiens, A549, 72 h) [µM] | IC50 ([5]; Homo sapiens) [µM] | further results
1 | Cn1c2nc3ccccc3c-2cc2ccccc21 [neocryptolepine (II), neocryptolepine] |  |  |  | IC50 [1]: 7.48 ± 4.42 µM; IC50 [2]: 12.7 ± 1.3 µM
2 | Cn1c2nc3ccccc3c-2c(NCC(C)(C)N)c2cc(Cl)ccc21 [Compound 2g, N-(2-Amino-2-methylpropyl)-2-chloro-5-methyl-5H-indolo[2,3-b]quinolin-11-amine] | 0.453 ± 0.209 |  |  | 
3 | Cn1c2nc3ccccc3c-2c(NCC(C)(C)CN)c2cc(Br)ccc21 [Compound 2d, N-(3-Amino-2,2-dimethylpropyl)-2-bromo-5-methyl-5H-indolo[2,3-b]quinolin-11-amine] | 0.308 ± 0.102 |  |  | mode of binding to DNA ([7]; UV-Vis, red shift 256 nm to 289 nm and hypochromic effect, pH 7.0, 20 °C): intercalation; binding constant to DNA ([7]; salmon sperm DNA, phosphate buffer pH 7.0, 20 °C, double-reciprocal equation): 412000 L/mol
4 | Cn1c2nc3ccccc3c-2c(NCC(C)(C)CNC(=S)Nc2ccccc2)c2ccccc21 [Compound 4a, 1-(2,2-Dimethyl-3-(5-methyl-5H-indolo[2,3-b]quinolin-11-ylamino)propyl)-3phenylthiourea] | 0.68 ± 0.215 |  |  | 
5 | Cn1c2nc3ccccc3c-2c(NCC(C)(C)CNC(=O)Nc2ccccc2)c2cc(Cl)ccc21 [Compound 3c, 1-(3-(2-Chloro-5-methyl-5H-indolo[2,3-b]quinolin-11-ylamino)-2,2-dimethylpropyl)-3-phenylurea] | 0.79 ± 0.302 |  |  | 
6 | Cc1ccc2c(c1)c(NCC(C)(C)CNC(=O)Nc1ccccc1)c1c3ccccc3nc-1n2C [Compound 3b, 1-(3-(2,5-Dimethyl-5H-indolo[2,3-b]quinolin-11-ylamino)-2,2-dimethylpropyl)-3-phenylurea] | 0.427 ± 0.092 |  |  | 
7 | Cn1c2nc3ccccc3c-2c(NCC(C)(C)N)c2ccccc21 [Compound 2e, N-(2-Amino-2-methylpropyl)-5-methyl-5H-indolo[2,3-b]quinolin-11-amine] | 0.392 ± 0.188 |  |  | 
8 | Cn1c2nc3ccccc3c-2c(NCC(C)(C)CNC(=O)Nc2ccccc2)c2ccccc21 [Compound 3a, 1-(2,2-Dimethyl-3-(5-methyl-5H-indolo[2,3-b]quinolin-11-ylamino)propyl)-3-phenylurea] | 0.549 ± 0.108 |  |  | 
9 | Cn1c2nc3ccccc3c-2c(Cl)c2ccccc21 [Compound 1a] | 1.31 ± 0.262 |  |  | 
10 | N.N.[Cl][Pt][Cl] [Cisplatin, reference compound] |  |  |  | IC50 [4]: 9.87 ± 2.4 µM; IC50 [5]: 8.5 ± 0.54 µM; IC50 [6]: 8.7 ± 0.097 µM; IC50 [3]: 2.82 ± 0.45 µM
11 | Cc1ccc2c(c1)c(NCC(C)(C)CN)c1c3ccccc3nc-1n2C [Compound 2b, N-(3-Amino-2,2-dimethylpropyl)-2,5-dimethyl-5H-indolo[2,3-b]quinolin-11-amine] | 0.288 ± 0.075 |  |  | 
12 | Cn1c2nc3ccccc3c-2c(NCC(C)(C)NC(=S)Nc2ccccc2)c2cc(Cl)ccc21 [Compound 4b, 1-(1-(2-Chloro-5-methyl-5H-indolo[2,3-b]quinolin-11-ylamino)-2-methylpropan-2-yl)-3-phenylthiourea] | 2.33 ± 1.01 |  |  | 
13 | Cn1c2nc3ccccc3c-2c(NCC(C)(C)NC(=O)Nc2ccccc2)c2ccccc21 [Compound 3d, 1-(2-Methyl-1-(5-methyl-5H-indolo[2,3-b]quinolin-11-ylamino)propan-2-yl)-3-phenylurea] | 0.464 ± 0.141 |  |  | 

Continued by falling IC50 ([3]; Homo sapiens), values first:

Row | IC50 ([3]; Homo sapiens) [µM] | IC50 ([4]; Homo sapiens, A549, 72 h) [µM] | IC50 ([5]; Homo sapiens) [µM] | Compound | further results
14 | 0.15 ± 0.06 | 1.51 ± 0.198 | 1.26 ± 0.361 | Cn1c2nc3ccccc3c-2c(NCC(C)(C)CN)c2ccccc21 [Compound 2a, N-(3-Amino-2,2-dimethylpropyl)-5-methyl-5H-indolo[2,3-b]quinolin-11-amine] | IC50 ([6]; Mus musculus, BALB/3T3, 72 h): 4.79 ± 2.02 µM
15 | 0.119 ± 0.043 | 1.46 ± 0.168 | 1.37 ± 0.351 | Cn1c2nc3ccccc3c-2c(NCC(C)(C)CN)c2cc(Cl)ccc21 [Compound 2c, N-(3-Amino-2,2-dimethylpropyl)-2-chloro-5-methyl-5H-indolo[2,3-b]quinolin-11-amine] | IC50 ([6]; Mus musculus, BALB/3T3, 72 h): 9.13 ± 0.844 µM
16 | 0.105 ± 0.027 | 1.79 ± 0.27 | 2.37 ± 0.481 | Cc1ccc2c(c1)c(NCC(C)(C)N)c1c3ccccc3nc-1n2C [Compound 2f, N-(2-Amino-2-methylpropyl)-2,5-dimethyl-5H-indolo[2,3-b]quinolin-11-amine] | IC50 ([6]; Mus musculus, BALB/3T3, 72 h): 10.6 ± 0.33 µM
17 | 0.103 ± 0.014 | 1.27 ± 0.118 | 1.2 ± 0.283 | CC(N)CNc1c2c3ccccc3nc-2n(C)c2ccc(Cl)cc12 (centres unmarked) [Compound 2m, N-(2-Aminopropyl)-2-chloro-5-methyl-5H-indolo[2,3-b]quinolin-11-amine] | IC50 ([6]; Mus musculus, BALB/3T3, 72 h): 1.02 ± 0.017 µM
18 | 0.078 ± 0.02 | 0.988 ± 0.164 | 0.842 ± 0.367 | Cn1c2nc3ccccc3c-2c(NCC(C)(C)N)c2cc(Br)ccc21 [Compound 2n, N-(2-Amino-2-methylpropyl)-2-bromo-5-methyl-5H-indolo[2,3-b]quinolin-11-amine] | IC50 ([6]; Mus musculus, BALB/3T3, 72 h): 0.939 ± 0.018 µM
19 | 0.057 ± 0.015 | 0.199 | 0.117 ± 0.055 | Cn1c2nc3ccccc3c-2c(NCC(O)CN)c2cc(Br)ccc21 (centres unmarked) [Compound 2k, 1-Amino-3-(2-bromo-5-methyl-5H-indolo[2,3-b]quinolin-11-ylamino)propan-2-ol] | IC50 [4]: 0.19 ± 0.027 µM
20 | 0.042 ± 0.014 | 0.197 ± 0.028 | 0.138 ± 0.05 | Cn1c2nc3ccccc3c-2c(NCC(O)CN)c2cc(Cl)ccc21 (centres unmarked) [Compound 2h, 1-Amino-3-(2-chloro-5-methyl-5H-indolo[2,3-b]quinolin-11-ylamino)propan-2-ol] | 
21 | 0.006 ± 0.002 | 0.329 ± 0.097 | 0.39 ± 0.098 | COc1cccc2c1C(=O)c1c(O)c3c(c(O)c1C2=O)C[C@@](O)(C(=O)CO)C[C@@H]3O[C@H]1C[C@H](N)[C@H](O)[C@H](C)O1 [Doxorubicin HCl, reference compound] | IC50 ([6]; Mus musculus, BALB/3T3, 72 h): 1.08 ± 0.033 µM
